Test results as given in patent US20180125835A1, “Dosage and Use of an A2A Antagonist” (H. Lundbeck A/S, priority 2014, published 2018).
Where two headings read alike, the source gives them in different places.

Legend:
[1] = molecular target: A2A receptor (Callithrix jacchus, UniProt A0A8I3X4X6); test: Adenosine receptor binding affinity, marmoset A2A
[2] = molecular target: T1, A1 receptor (Rattus norvegicus, UniProt P25099); test: Adenosine receptor binding affinity, rat A1
T1 sequence (P25099 1-326): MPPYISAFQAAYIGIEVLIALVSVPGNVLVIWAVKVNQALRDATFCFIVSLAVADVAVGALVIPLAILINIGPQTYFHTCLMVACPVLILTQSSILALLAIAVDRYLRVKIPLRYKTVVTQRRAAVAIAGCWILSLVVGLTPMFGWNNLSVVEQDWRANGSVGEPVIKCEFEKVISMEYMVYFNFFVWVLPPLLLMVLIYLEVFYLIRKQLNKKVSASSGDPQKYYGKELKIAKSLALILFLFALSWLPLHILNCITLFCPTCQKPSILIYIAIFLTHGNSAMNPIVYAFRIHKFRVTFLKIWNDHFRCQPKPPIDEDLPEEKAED

[3] = test system: 57 counter-screen targets (receptors, ion channels and transporters); test: Counter-screen binding panel of CNS targets
[4] = molecular target: A2A receptor (Homo sapiens, UniProt P29274); test: PET study in humans of A2A receptor occupancy with [11C]-SCH442416; assay type: in vivo; conditions: for EC50: plasma concentration at PET scan, read-out: estimated EC50 of A2A receptor occupancy (converted)
Protocol: There were 3 cohorts in the study, each including 2 subjects.
In the Screening period (Days −28 to −4) safety screening procedures were performed and subject eligibility was confirmed following a magnetic resonance imaging (MRI) scan (Days −21 to −2). Eligible subjects were admitted to the clinic on Day −1. […] The subjects received the PET tracer [11C]-SCH442416 immediately prior to each PET scan.
The PET tracer, [11C]-SCH442416 was provided as a radiopharmaceutical in an 11 mL sterile and pyrogen free type 1 glass vial as a solution for intravenous administration. The [11C]-SCH442416 solution consisted of up to 10% ethanol and 90% saline and was administered as an intravenous bolus in approximately […] of the saline/ethanol solution over approximately 20 seconds. Each subject received a maximum of 500 MBq of [11C]-SCH442416 for each PET scan.
PET data were analysed using the simplified reference tissue method (SRTM). […] The SRTM implementation employed directly estimated the binding potential relative to the non-displaceable component (BPND), which can be thought of as a measure of specific binding.
Receptor occupancy (RO) in a region of interest (ROI) can then be calculated directly as: RO=100×(1−BPND(post-dose)/BPND(baseline))
Binding potential and estimated RO were listed and presented graphically versus CPET.

[5] = Safety and tolerability study, adverse events (Parts A, B, C)
Protocol: The study was conducted in three parts: Parts A, B, and C.
Parts A and B were single-dose escalations to determine the safety and tolerability in young healthy men, and in elderly men and women, respectively. Three doses (Cohorts A1 to A3) were tested in healthy young men: 1 mg (N=6), 5 mg (N=6), and 10 mg (N=5); placebo (N=8, total of the three cohorts). […] Two doses (Cohorts B1 and B2) were tested in healthy elderly men and women: 5 mg (N=9 men/4 women), 10 mg (N=4 men/4 women); placebo (N=6 men/4 women, total of the three cohorts). […] A washout period of at least 7 days separated each dose administration.

[6] = Part A, healthy young men, 1, 5 and 10 mg dose groups
[7] = Part B, healthy elderly, 5 and 10 mg dose groups
[8] = Part C, 5 mg on three occasions

Sequence of A2A receptor (Homo sapiens, UniProt P29274) (P29274 whole entry): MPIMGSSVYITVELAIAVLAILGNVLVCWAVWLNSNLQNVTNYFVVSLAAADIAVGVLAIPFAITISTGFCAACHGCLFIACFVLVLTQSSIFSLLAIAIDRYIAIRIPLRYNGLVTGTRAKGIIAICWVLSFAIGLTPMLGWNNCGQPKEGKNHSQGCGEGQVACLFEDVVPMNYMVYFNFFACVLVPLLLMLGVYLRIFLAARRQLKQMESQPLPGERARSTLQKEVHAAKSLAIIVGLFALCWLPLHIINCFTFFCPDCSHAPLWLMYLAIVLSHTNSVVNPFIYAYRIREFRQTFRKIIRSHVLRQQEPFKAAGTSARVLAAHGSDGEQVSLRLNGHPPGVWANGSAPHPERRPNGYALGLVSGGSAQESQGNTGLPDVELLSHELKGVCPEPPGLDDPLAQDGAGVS
Sequence of A2A receptor (Callithrix jacchus, UniProt A0A8I3X4X6) (A0A8I3X4X6 1-410): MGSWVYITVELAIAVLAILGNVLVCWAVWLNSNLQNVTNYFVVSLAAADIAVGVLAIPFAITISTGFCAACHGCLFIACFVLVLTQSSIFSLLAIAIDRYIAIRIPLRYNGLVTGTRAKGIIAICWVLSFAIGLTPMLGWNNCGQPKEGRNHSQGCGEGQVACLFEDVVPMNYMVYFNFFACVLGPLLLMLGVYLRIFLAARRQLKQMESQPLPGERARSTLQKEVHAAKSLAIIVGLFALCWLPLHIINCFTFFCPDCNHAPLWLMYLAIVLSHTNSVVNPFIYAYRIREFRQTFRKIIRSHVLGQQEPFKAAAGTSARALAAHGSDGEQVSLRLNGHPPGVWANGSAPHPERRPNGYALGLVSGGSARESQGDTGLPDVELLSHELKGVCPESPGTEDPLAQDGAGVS

Cc1ccc(C(=O)Nc2nc(-c3ccco3)c(C(=O)C3CCOCC3)s2)cn1 [Compound 504]
Ki [1]: 0.113 ± 0.0046 nM | Ki [2]: 50.7 ± 3.18 nM | affinity for other receptors, ion channels and transporters ([3]; DA, 5-HT, Ach, GABA, Glu, opiates, cannabinoid, calcium, potassium channels, transporters): Little or no affinity | inhibition of binding ([3]; at 10 μM, any of the 57 counter-screen targets): Less than 50% | estimated Emax of A2A receptor occupancy ([4]; globus pallidus, Emax model vs CPET): 101% | EC50 ([4]; globus pallidus): 173 nM | EC50 ([4]; putamen): 78 nM | dosage sufficient to reach an occupancy of 80% ([4]; single oral dose, healthy young men): ≤ 3 mg | insomnia ([5]; Part A, 1 mg group): not reported | subjects reporting insomnia ([5]; Part A, 5 mg group (N=6)): 4 subjects | subjects reporting insomnia ([5]; Part A, 10 mg group (N=5)): 5 subjects | number of AEs [5, 6]: 36 | subjects with AEs [5, 6]: 13 of the 17 | number of severe adverse events ([5]; Part B, 10 mg group): 5 | subjects with severe adverse events ([5]; Part B, 10 mg group): Three | dose considered to approach the maximum tolerated dose ([5]; Part B, elderly subjects): ~10 mg | number of AEs [5, 7]: 53 | subjects with AEs [5, 7]: 16 of the 21 | events of mild insomnia ([5]; Part C): 12 | events of moderate insomnia ([5]; Part C): 2 | number of moderate AEs ([5]; Part C): 15 | number of severe AEs ([5]; Part C): 3 | number of AEs [5, 8]: 90 | subjects with AEs [5, 8]: 11 of the 12 | safety and tolerability ([5]; Part C, 5 mg single doses, fed and fasting states): safe and tolerated | maximal tolerated dosage ([5]; single dose, insomnia limiting): 10 mg
